Experimental findings from ChEMBL document CHEMBL1128139, “Synthesis of 2,3-dideoxy-3,4-dihydroxymethyl substituted pyrimidine nucleoside analogues” (Bioorg Med Chem Lett, 1995) are described below.

SMILES strings stand for the structures. Active and inactive are the calls of the source. No cut-off for these calls is given here.

Experiment [1] has as its system Human immunodeficiency virus 1. Nature of the experiment: Compound was tested for anti HIV-1 and cytopathic effects in XTT assay;IA means inactive. The class given is functional, organism-based. In general terms: Damage to the host cells serves as the signal in cytopathic effect assays.
In experiment [2] the test system is HIV-1 reverse transcriptase (Human immunodeficiency virus 1). In words: Compound was tested for HIV-1 RT inhibition in in vitro assay;IA means inactive.

Consider `Cc1cn([C@H]2C[C@H](CO)C(CO)(CO)O2)c(=O)[nH]c1=O`, for which, in experiment [1], the result was inactive. Besides, the inhibition entry in experiment [2] is “inactive”.
As to `Nc1ccn([C@H]2C[C@H](CO)C(CO)(CO)O2)c(=O)n1`, the outcome in experiment [1] was inactive. Moreover, the inhibition result in experiment [2] was “inactive”.
Turning to `Cc1cn([C@@H]2C[C@H](CO)C(CO)(CO)O2)c(=O)[nH]c1=O`, the outcome in experiment [1] was inactive. Further, the inhibition result in experiment [2] was “inactive”.
For the molecule `Nc1ccn([C@@H]2C[C@H](CO)C(CO)(CO)O2)c(=O)n1`, the outcome in experiment [1] was inactive. In addition, the inhibition entry in experiment [2] is “inactive”.
